The text below walks through data of patent publication US10966911B2, “Melanin decomposition inhibitor” (KAO CORPORATION, priority 2016, dated 2021).

The structures appear in SMILES notation.

For assay [1], the system named is Pmel17. Nature of the assay: Melanin (melanosome) decomposition in epidermal keratinocytes that incorporated MNT-1 melanosome fraction. In kind it is cell-based, human. As to conditions: keratinocytes with incorporated melanosome, proguanil 10 or 30 μM, 2 days, FIG. 17. How it is done: Normal human neonatal foreskin-derived epidermal keratinocytes (Human Epidermal Keratinocytes, neonatal (HEKn) lightly; keratinocytes) were purchased from Thermo Fisher Scientific. Melanoma cell strain MNT-1 cells were given by Dr. […] (University La Sapienza, Rome, Italy). The keratinocytes were cultured in a grow medium (Epilife) epidermal keratinocytes (Thermo Fisher Scientific) supplemented with a growth additive (Humedia-KG) (manufactured by Kurabo Industries Ltd.) at 37° C. in 5 vol % CO2 atmospheric conditions. As a grow medium MNT-1 cells, RPMI1640 medium (Thermo Fisher Scientific) containing AIM-V medium and Fetal Bovine Serum (FES) each in an amount of 10% (v/v) was used and culture was performed at 37° C. in 5 vol % CO2 atmospheric conditions. A melanosome fraction was isolated and prepared from MNT-1 cells by a predetermined method (Murase et al. (2013), J Invest Dermatol, 133: 2416-2424). […] The resultant supernatant was subjected to quantitative determination of protein by BCA (bicinchoninic acid) method using Pierce BCA Protein Assay Kit (Thermo Fisher Scientific) and Bovine Serum Albumin (BSA) as a standard substance. […] Expression of β-actin as the internal standard was evaluated by using a monoclonal antibody specific for β-actin (Sigma-Aldrich, 1:5000). […]

Assay [2] has as its system dopa oxidase activity of melanocytes. As to the kind of experiment: Dopa oxidase activity of melanocytes in keratinocyte-melanocyte co-culture system. In kind it is cell-based, human. The note with it: melanocytes (lightly and darkly), proguanil 0.1-1000 μM, 4 days, versus DMSO, FIGS. 16A, 16B. The protocol:
Melanocytes (lightly and darkly) were seeded in 96-well plates at a cell density of 2×10^4 cells/well (100 μL/well). […] Two days later, proguanil was added at a final concentration of 0.1, 0.3, 1, 3, 10, 30, 100, 300 or 1000 μM and culture was performed at 37° C. in 5 vol % CO2 atmospheric conditions for 4 days. As a control, the same amount of DMSO was added. After completion of culture, the whole medium was replaced (100 μL/well), a reagent, alamarBlue (Bio-Rad AbD Serotec Limited) was added so as to obtain a ratio of 10 μL/well. Incubation was carried out at 37° C. in 5 vol % CO2 atmospheric conditions for one hour. Thereafter, fluorescence intensity of the medium was measured (Ex544 nm/Em590 nm) to evaluate cellular respiratory chain (growth) activity. […] The cells were lysed at 4° C. over 2 hours and dopa oxidase activity was measured. The activity measurement was performed by the following method based on the […] method (Winder A. et al., 1991, Eur. J. Biochem. 198: 317-326): to individual wells containing a cell lysate, the Assay Buffer (80 μL) as mentioned above, an aqueous 20.7 mM MBTH (3-methyl-2-benzothiazolinone hydrazone) solution (60 μL) and an aqueous 5 mM L-DOPA (L-dihydroxyphenylalanine) (40 μL) solution serving as a substrate were added, a reaction was performed at 37° C. for 30 minutes and the absorbance at a wavelength of 505 nm was measured. […]

With `[H]/N=C(\N/C(=N/[H])Nc1ccc(Cl)cc1)NC(C)C` [proguanil, 1-(p-chlorophenyl)-5-isopropyl biguanide], the “color density of the cell sediment” value in assay [1] is recorded as “confirmed to be increased in a concentration-dependent manner”. Besides, the “intensity of the band of Pmel17” value in assay [1] (versus DMSO) was “is increased in a concentration-dependent manner”. The dopa oxidase activity entry in assay [2] was “does not accelerate dopa oxidase activity”.
